# How the values were obtained:
# L1210/L-PAM leukemia = experiment: cells; assay type: cell-based, mice
# Hairy cell leukemia = experiment: Survival of fresh human leukemic cells, continuous exposure; assay type: cell-based
# L1210 leukemia cells = experiment: Tumorigenicity of in vitro treated leukemia cells in BDF1 recipients; assay type: in vivo, BDF1 mice; details: for MST: L1210, control 10
# Experimental: All in vitro PTT.119 and L-PAM treatment of cells were carried out at 37° C. in the appropriate complete growth media containing 10% or 18% sera. L1210, L1210/L-PAM and P388/L-PAM cell suspensions of 1×10^6 cells/ml were subjected to a single 15, 30 or 60 min pulse exposure to 3.75, 7.5 and 15 uM PTT.119 or L-PAM. Following treatment, media were removed by pelleting the cells at 200×g for 9 min at 5° C. Cells were then gently washed twice with fresh growth media and finally resuspended in RPMI-1630 medium with 10% FBS for in vitro cultures.
# Suspensions of PTT.119 or L-PAM treated cells, and control leukemia cells were adjusted to 1×10^7 cells/ml based on tumor cell concentrations prior to drug exposure. Syngeneic female BDF1 (BALB/c×DBA/2)f, mice weighing 20 to 26 g received intraperitoneal injections of 1×10^6 cells. Mice were monitored daily throughout the 45 day examination period and were autopsied at the time of death.
# L1210S = experiment: cells; assay type: cell-based
# L1210 leukemia = experiment: cells; assay type: cell-based, mice
# C-type virus = experiment: Monitoring of treated MJY-alpha cells for induction of C-type virus; assay type: cell-based; details: 0.5 to 48 hour pulse or 8 months culture in the tripeptide
# From the text: The possible multifocal action of this antitumor tripeptide was a concern during examination of this compound. Since virus particles obtained by induction are infectious and oncogenic, PTT.119-treated cells were monitored for the presence of C-type virus. […] In addition, no diminution of the inhibitory effect of PTT.119 or enhancement of B-type retrovirus production was observed under these conditions.
# [1] = tested on: MJY-alpha mammary tumor cell layers; experiment: Tumor cell survival (trypan blue), continuous exposure; assay type: cell-based, Mouse; details: for Percent Tumor Cell Survival / % tumor cell survival / reduction of tumor cell survival: MJY-alpha; for Percent Tumor Cell Survival: treated 24 hr; for reduction of tumor cell survival: 10 microgram/ml
# [2] = tested on: MJY-alpha mammary tumor cells; experiment: Bioassay of tumorigenicity of in vitro treated tumor cells in syngeneic hosts; assay type: in vivo, BALB/c mice; details: for MEAN SURVIVAL TIME (MST) of recipients: control 42
# From the text: Suspensions of untreated and tripeptide treated MJY-alpha mammary tumor, B-16 melanoma, and L-1210 leukemia cells were adjusted to a concentration of 1×10^7 cells/ml based on the initial tumor cell concentration before the tripeptide exposure. Tumor cells were inoculated into syngeneic hosts at a concentration of 1×10^6 cells in […]. Female BALB/c/Crgl recipients of MJY-alpha mammary tumor cells and male C57BL/6/Jx hosts receiving B16 melanoma cells were inoculated subcutaneously; BDf1 mice were given intraperitoneal injections of L-1210 cells. Subcutaneous tumors were measured along their long and short axes every 1 to 3 days; tumor size is reported as the product of the two measurements (mm^2). The examination periods for mice receiving L-1210, MJY-alpha and B-16 tumor grafts were 45, 80, and 85 days, respectively. All mice were autopsied at the time of death or sacrifice.
# [3] = tested on: MJY-alpha mammary tumor cell layers; experiment: Morphology of treated cell layers (May-Grunwald-Giemsa); assay type: cell-based; details: 5 and 10 ug/ml for 15 to 60 minutes
# Experimental: Confluent MJY-alpha mammery tumor cell layers were treated with […] or diluent for 15 or 60 minutes, washed, and then incubated in growth medium. Representative cell layers were fixed and stained with May-Grunwald-Giemsastain from one (1) to seven (7) days after treatment as specified. Hemicysts or domes which are usually observed in short-term cultures of murine, MMTV-induced mammary tumors are not present in MJY-alpha cultures (FIG. 12a and b). […] Cellular pseudopodia were withdrawn and the cytoplasm appeared condensed around the nuclei (FIG. 12c and d). The most striking feature of exposure to high concentrations of PTT.119 was the ruffling of the plasma membrane and the formation of vesicles and blebs. […] This alteration was closely followed by visible increases in the cytosol volume or rarefaction of the cytoplasm (FIG. 12f). The degree of further pathological alterations of MJY-alpha mammary tumor cells was dependent on the dosage of PTT.119 and included lobulation and fragmentation of the nuclei, and the formation of multinuclear cells (FIG. 12f and h). […] Chromosomal condensation was not inhibited in multinucleated cells or in cells with highly lobulated or fragmented nuclei (FIG. 12h).
# P388/L-PAM leukemia = experiment: cells; assay type: cell-based, mice
smiles,measurement,setting,value
"CCOC(=O)[C@H](CCSC)NC(=O)[C@H](Cc1cccc(N(CCCl)CCCl)c1)NC(=O)[C@@H](N)Cc1ccc(F)cc1.Cl [PTT.119, 3-(p-fluorophenyl)-L-alanyl-3-[m-bis(2-chloroethyl)aminophenyl]-L-alanyl-L-methionine ethyl ester hydrochloride]",T.C.D.100,L1210/L-PAM leukemia,30.0
same,surviving fraction at end of examination period,L1210/L-PAM leukemia,0.8-3%
same,percentage of viable cells,L1210/L-PAM leukemia; 3.75 µM,40-50%
same,IC50,"L1210/L-PAM leukemia; Mus musculus, L1210/LPAM, 24 h, read-out: T.C.D.50",3 µM
same,% tumor cell survival,"Hairy cell leukemia; 5 ug/ml, 1 hr",100%
same,% tumor cell survival,"Hairy cell leukemia; 5 ug/ml, 4 hr",80%
same,% tumor cell survival,"Hairy cell leukemia; 5 ug/ml, 24 hr",34%
same,% tumor cell survival,"Hairy cell leukemia; 10 ug/ml, 1 hr",100%
same,% tumor cell survival,"Hairy cell leukemia; 10 ug/ml, 4 hr",71%
same,% tumor cell survival,"Hairy cell leukemia; 10 ug/ml, 24 hr",81%
same,% tumor cell survival,"Hairy cell leukemia; 25 ug/ml, 1 hr",92%
same,% tumor cell survival,"Hairy cell leukemia; 25 ug/ml, 4 hr",71%
same,% tumor cell survival,"Hairy cell leukemia; 25 ug/ml, 24 hr",12%
same,% tumor cell survival,"Hairy cell leukemia; 50 ug/ml, 1 hr",37%
same,% tumor cell survival,"Hairy cell leukemia; 50 ug/ml, 4 hr",21%
same,% tumor cell survival,"Hairy cell leukemia; 50 ug/ml, 24 hr",7%
same,MST,"L1210 leukemia cells; 7.5 uM, 30 min",21 days
same,MST,"L1210 leukemia cells; 7.5 uM, 60 min",32 days
same,MST,"L1210 leukemia cells; 15 uM, 15 min",8 days
same,mice free of tumor at end of 45-day examination period,"L1210 leukemia cells; L1210 cells, 7.5 and 15 uM, every group",80-100%
same,IC50,"L1210S; 24 h, read-out: T.C.D.50",2.38 µM
same,T.C.D.100,"L1210S; L1210S, 24 hours exposure",7.5 µM
same,T.C.D.100,L1210 leukemia,37.5
same,elimination of viable population,L1210 leukemia,completely eliminated the viable population
same,surviving fraction at end of examination period,L1210 leukemia,15%
same,percentage of viable cells,L1210 leukemia; 3.75 µM,40-50%
same,IC50,"L1210 leukemia; Mus musculus, L1210, 24 h, read-out: T.C.D.50",9 µM
same,endogenous (C-type) virus production,C-type virus,no detection of any endogenous virus production
same,Percent Tumor Cell Survival,[1]; 1 ug/ml,54%
same,% tumor cell survival,"[1]; 5 ug/ml, 1 hr",100%
same,% tumor cell survival,"[1]; 5 ug/ml, 4 hr",100%
same,% tumor cell survival,"[1]; 5 ug/ml, 8 hr",100%
same,% tumor cell survival,"[1]; 5 ug/ml, 24 hr",53%
same,Percent Tumor Cell Survival,[1]; 5 ug/ml,41%
same,% tumor cell survival,"[1]; 10 ug/ml, 1 hr",100%
same,% tumor cell survival,"[1]; 10 ug/ml, 4 hr",100%
same,% tumor cell survival,"[1]; 10 ug/ml, 8 hr",100%
same,% tumor cell survival,"[1]; 10 ug/ml, 24 hr",53%
same,Percent Tumor Cell Survival,[1]; 10 ug/ml,36%
same,% tumor cell survival,"[1]; 25 ug/ml, 1 hr",100%
same,% tumor cell survival,"[1]; 25 ug/ml, 4 hr",100%
same,% tumor cell survival,"[1]; 25 ug/ml, 8 hr",98%
same,% tumor cell survival,"[1]; 25 ug/ml, 24 hr",25%
same,Percent Tumor Cell Survival,[1]; 25 ug/ml,27%
same,% tumor cell survival,"[1]; 50 ug/ml, 1 hr",98%
same,% tumor cell survival,"[1]; 50 ug/ml, 4 hr",87%
same,% tumor cell survival,"[1]; 50 ug/ml, 8 hr",62%
same,% tumor cell survival,"[1]; 50 ug/ml, 24 hr",19%
same,Percent Tumor Cell Survival,[1]; 50 ug/ml,20%
same,reduction of tumor cell survival,[1]; another 24 hours,25%
same,reduction of tumor cell survival,[1]; zero to 24 hours,8%
same,decrease in mammary tumor cell survival,"[1]; continuous 24 hr exposure, all concentrations tested (0.1 to 50 ug/ml)",46-80%
same,tumor growth in recipients,[2]; 10^6 MJY-alpha cells treated with 25 ug or higher for 30 to 240 min,complete absence of tumor growth
same,MEAN SURVIVAL TIME (MST) of recipients,"[2]; MJY-alpha, 5 ug/ml, 60 min",52 days
same,MEAN SURVIVAL TIME (MST) of recipients,"[2]; MJY-alpha, 5 ug/ml, 120 min",43 days
same,MEAN SURVIVAL TIME (MST) of recipients,"[2]; MJY-alpha, 10 ug/ml, 30 min",44 days
same,MEAN SURVIVAL TIME (MST) of recipients,"[2]; MJY-alpha, 10 ug/ml, 60 min",46 days
same,MEAN SURVIVAL TIME (MST) of recipients,"[2]; MJY-alpha, 10 ug/ml, 120 min",61 days
same,MEAN SURVIVAL TIME (MST) of recipients,"[2]; MJY-alpha, 25 ug/ml, 30 min",56 days
same,initial lag period between inoculation and appearance of palpable tumors,"[2]; MJY-alpha, increasing dosages, 2 hr treatment",lengthened
same,reduction of viable tumor cell population,"[2]; MJY-alpha, inferred from LD100 of 100 viable cells",at least 99.9%
same,tumor growth rates of untreated and treated cells,"[2]; MJY-alpha, once graft established",identical
same,appearance of cell layers,[3],appeared unchanged
same,T.C.D.100,P388/L-PAM leukemia,22.5
same,surviving fraction at end of examination period,P388/L-PAM leukemia,0-0.5%
same,percentage of viable cells,P388/L-PAM leukemia; 3.75 µM,0-1%
same,IC50,"P388/L-PAM leukemia; Mus musculus, P388, 24 h, read-out: T.C.D.50",5 µM

# — patent US4740501A (priority 1985, dated 1988)
